PubChem BioAssay (NCI)
“And” between values parts separate entries of the source, which are not always exact repeats. Equal entries are not always repeated.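 Test compounds were applied to cells in 96-well plates for 48 hours at 5 doses. GI50 = concentration required for 50% inhibition of growth. The concentration for full growth arrest is given as TGI.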

Tests used:
Test in all cases: NCI tumour cell line growth inhibition, 48 h
[1] = tested on: P388/ADR leukemia
[2] = tested on: EKVX NSCLC
[3] = tested on: SK-OV-3 ovarian
[4] = tested on: MCF7 breast
[5] = tested on: DLD-1 colon
[6] = tested on: SF-295 CNS
[7] = tested on: SW-620 colon
[8] = tested on: DU-145 prostate
[9] = tested on: SF-539 CNS
[10] = tested on: HOP-92 NSCLC
[11] = tested on: HOP-62 NSCLC
[12] = tested on: RXF 393 renal
[13] = tested on: MOLT-4 leukemia
[14] = tested on: HOP-18 NSCLC
[15] = tested on: HCT-15 colon
[16] = tested on: BT-549 breast
[17] = tested on: MDA-MB-435
[18] = tested on: HCT-116 colon
[19] = tested on: TK-10 renal
[20] = tested on: XF 498 CNS
[21] = tested on: NCI-H226 lung
[22] = tested on: UACC-62 melanoma
[23] = tested on: COLO 205 colon
[24] = tested on: UO-31 renal
[25] = tested on: NCI-H460 lung
[26] = tested on: PC-3 prostate
[27] = tested on: IGROV1 ovarian
[28] = tested on: CCRF-CEM leukemia
[29] = tested on: OVCAR-3 ovarian
[30] = tested on: SK-MEL-5 melanoma
[31] = tested on: OVCAR-4 ovarian
[32] = tested on: UACC-257 melanoma
[33] = tested on: HCC-2998 colon
[34] = tested on: MDA-MB-231 breast
[35] = tested on: A498 renal
[36] = tested on: KM20L2 colon
[37] = tested on: SN12C renal
[38] = tested on: A549 NSCLC
[39] = tested on: SN12K1 renal
[40] = tested on: CAKI-1 renal
[41] = tested on: ACHN renal
[42] = tested on: HL-60(TB) leukemia
[43] = tested on: SK-MEL-2 melanoma
[44] = tested on: NCI/ADR-RES ovarian
[45] = tested on: OVCAR-5 ovarian
[46] = tested on: LOX IMVI melanoma
[47] = tested on: SF-268 CNS
[48] = tested on: T-47D breast
[49] = tested on: SR leukemia
[50] = tested on: HT29 colon
[51] = tested on: OVCAR-8 ovarian
[52] = tested on: KM12 colon

How did the GI50 [1] turn out when O=CC(NC(=O)N(CCCl)N=O)C(O)C(O)C(O)CO (configuration not stated) was run?
Its GI50 is 34.5 µM and 65 µM.

And the TGI [1]?
Its TGI is 360 µM and > 1250 µM.

And the GI50 [2]?
The GI50 was greater than 625 µM.

And the TGI [2]?
The TGI was greater than 1250 µM.

What about the GI50 [3] of the same compound?
Its GI50 is 279 µM.

And the TGI [3]?
Its TGI is 576 µM and > 1250 µM.

And the GI50 [4]?
The GI50 was 485 µM.

And the TGI [4]?
The TGI was 625 µM and > 1250 µM.

And the GI50 [5]?
The GI50 was greater than 625 µM.

What about the TGI [5] of the same compound?
Its TGI is greater than 1250 µM.

What about the GI50 [6] of the same compound?
Its GI50 is 31.5 µM.

What about the TGI [6] of the same compound?
The TGI was 625 µM and 764 µM.

What about the GI50 [7] of the same compound?
The GI50 was 171 µM and > 1250 µM.

What about the TGI [7] of the same compound?
Its TGI is 625 µM and > 1250 µM.

What about the TGI [8] of the same compound?
Its TGI is greater than 1250 µM.

What about the GI50 [9] of the same compound?
The GI50 was 40 µM and 255 µM.

What about the TGI [9] of the same compound?
The TGI was 483 µM and > 1250 µM and 614 µM.

And the GI50 [10]?
The GI50 was 377 µM and > 1250 µM and 362 µM.

What about the TGI [10] of the same compound?
The TGI was 625 µM and > 1250 µM and > 1230 µM.

And the GI50 [11]?
Its GI50 is 115 µM.

What about the TGI [11] of the same compound?
Its TGI is 536 µM and 422 µM.

What about the GI50 [12] of the same compound?
The GI50 was 417 µM.

And the TGI [12]?
Its TGI is 625 µM and > 1250 µM.

And the GI50 [13]?
The GI50 was 104 µM.

And the TGI [13]?
Its TGI is 625 µM and > 1060 µM.

And the GI50 [14]?
The GI50 was greater than 625 µM.

What about the TGI [14] of the same compound?
Its TGI is greater than 1250 µM.

And the GI50 [15]?
Its GI50 is greater than 625 µM.

What about the TGI [15] of the same compound?
The TGI was greater than 1250 µM.

And the TGI [16]?
Its TGI is greater than 1250 µM.

And the TGI [17]?
The TGI was greater than 1250 µM.

And the GI50 [18]?
Its GI50 is 302 µM and 1030 µM and 467 µM.

And the TGI [18]?
Its TGI is 625 µM and > 1250 µM and > 992 µM.

And the TGI [19]?
Its TGI is greater than 1250 µM.

And the TGI [20]?
Its TGI is 415 µM and > 1250 µM.

And the GI50 [21]?
Its GI50 is 73.1 µM.

And the TGI [21]?
Its TGI is 625 µM and > 1250 µM.

What about the GI50 [22] of the same compound?
The GI50 was 18.5 µM.

What about the TGI [22] of the same compound?
The TGI was 185 µM and > 1250 µM and 939 µM.

And the GI50 [23]?
Its GI50 is greater than 625 µM.

What about the TGI [23] of the same compound?
Its TGI is greater than 1250 µM.

What about the TGI [24] of the same compound?
Its TGI is greater than 1250 µM.

What about the GI50 [25] of the same compound?
The GI50 was 208 µM and 401 µM.

And the TGI [25]?
Its TGI is 625 µM and > 1250 µM and > 1210 µM.

And the TGI [26]?
The TGI was greater than 1250 µM.

And the GI50 [27]?
Its GI50 is 460 µM and > 1250 µM.

And the TGI [27]?
The TGI was 625 µM and > 1250 µM.

What about the GI50 [28] of the same compound?
The GI50 was 207 µM and 515 µM.

What about the TGI [28] of the same compound?
The TGI was 625 µM and > 1250 µM.

What about the GI50 [29] of the same compound?
Its GI50 is greater than 625 µM.

And the TGI [29]?
The TGI was greater than 1250 µM.

And the GI50 [30]?
Its GI50 is 161 µM.

What about the TGI [30] of the same compound?
The TGI was 625 µM and 647 µM.

What about the GI50 [31] of the same compound?
Its GI50 is greater than 625 µM.

And the TGI [31]?
The TGI was greater than 1250 µM.

And the GI50 [32]?
The GI50 was greater than 625 µM.

And the TGI [32]?
Its TGI is greater than 1250 µM.

What about the GI50 [33] of the same compound?
The GI50 was greater than 625 µM.

And the TGI [33]?
Its TGI is greater than 1250 µM.

What about the TGI [34] of the same compound?
The TGI was greater than 1250 µM.

And the GI50 [35]?
The GI50 was greater than 1250 µM.

And the TGI [35]?
The TGI was greater than 1250 µM.

What about the GI50 [36] of the same compound?
The GI50 was greater than 625 µM.

What about the TGI [36] of the same compound?
Its TGI is greater than 1250 µM.

And the GI50 [37]?
Its GI50 is 206 µM and > 1250 µM.

And the TGI [37]?
Its TGI is 625 µM and > 1250 µM.

And the GI50 [38]?
The GI50 was 162 µM and 584 µM.

And the TGI [38]?
The TGI was 625 µM and > 1250 µM.

And the GI50 [39]?
The GI50 was 133 µM and 290 µM.

And the TGI [39]?
Its TGI is 625 µM and > 1250 µM.

And the GI50 [40]?
The GI50 was 269 µM.

And the TGI [40]?
Its TGI is 625 µM and > 1250 µM.

And the TGI [41]?
The TGI was greater than 1250 µM.

And the GI50 [42]?
The GI50 was 144 µM and 420 µM.

And the TGI [42]?
Its TGI is 625 µM and > 1250 µM and 1070 µM.

And the GI50 [43]?
Its GI50 is greater than 625 µM.

What about the TGI [43] of the same compound?
The TGI was greater than 1250 µM.

And the GI50 [44]?
Its GI50 is 499 µM and > 1250 µM.

What about the TGI [44] of the same compound?
Its TGI is 625 µM and > 1250 µM.

What about the GI50 [45] of the same compound?
Its GI50 is greater than 625 µM.

And the TGI [45]?
Its TGI is greater than 1250 µM.

And the GI50 [46]?
Its GI50 is 50 µM and 303 µM and 78.7 µM.

And the TGI [46]?
Its TGI is 384 µM and > 1250 µM and 661 µM.

And the GI50 [47]?
The GI50 was 19.8 µM and 137 µM.

What about the TGI [48] of the same compound?
Its TGI is greater than 1250 µM.

And the TGI [49]?
Its TGI is greater than 623 µM.

What about the GI50 [50] of the same compound?
Its GI50 is greater than 625 µM.

And the TGI [50]?
Its TGI is greater than 1250 µM.

What about the GI50 [51] of the same compound?
The GI50 was > 625 µM and 587 µM.

And the TGI [51]?
Its TGI is greater than 1250 µM.

What about the GI50 [52] of the same compound?
The GI50 was 541 µM.

And the TGI [52]?
The TGI was 625 µM and > 1250 µM.
